Test results reported in patent publication US10899754B2, “Modulators of indoleamine 2,3-dioxygenase” (GLAXOSMITHKLINE INTELLECTUAL PROPERTY DEVELOPMENT LIMITED, priority 2016, dated 2021).

Molecular target: indoleamine 2, 3-dioxygenase (IDO1) (Homo sapiens, UniProt P14902)
Assay: IDO1 PBMC RapidFire MS assay (kynurenine detection by mass spectrometry)
Type: cell-based
Parameters: to induce the expression of indoleamine 2, 3-dioxygenase (IDO1); host or cells: human PBMC stimulated with IFN-gamma and LPS
Details: human PBMC stimulated with IFN-γ and LPS, 2 days, pIC50, read-out: PBMC PXC50 (converted)
In short: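 PBMCs (50,000 cells/well) stimulated with IFN-γ 100 ng/ml plus LPS 50 ng/ml, treated with 11-point 3-fold compound series for 2 days at 37° C. Supernatant kynurenine measured by RapidFire MS, normalised to internal standard; parallel cytotoxicity by CellTiter-Glo luminescence; curves fitted for XC50.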

indoleamine 2, 3-dioxygenase (IDO1), sequence (P14902 whole entry): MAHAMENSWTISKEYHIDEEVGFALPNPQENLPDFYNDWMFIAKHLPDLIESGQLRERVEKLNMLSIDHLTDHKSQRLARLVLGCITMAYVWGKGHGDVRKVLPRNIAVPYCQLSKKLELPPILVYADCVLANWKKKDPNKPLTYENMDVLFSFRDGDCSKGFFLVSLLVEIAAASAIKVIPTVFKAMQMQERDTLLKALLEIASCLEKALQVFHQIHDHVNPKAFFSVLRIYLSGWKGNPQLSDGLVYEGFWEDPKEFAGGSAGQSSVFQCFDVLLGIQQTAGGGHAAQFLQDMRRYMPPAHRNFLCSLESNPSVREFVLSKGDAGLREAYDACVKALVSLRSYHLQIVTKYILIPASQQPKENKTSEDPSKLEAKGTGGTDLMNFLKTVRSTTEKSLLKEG

SMILES | IC50
CC(C)CN(c1ccc([C@H](C)CC(=O)O)cc1Nc1nc(C(F)(F)F)ns1)C1CCOCC1 [Example 20, (R)-3-(4-(Isobutyl(tetrahydro-2H-pyran-4-yl)amino)-3-((3-(trifluoromethyl)-1,2,4-thiadiazol-5-yl)amino)phenyl)butanoic Acid] | 2.51 nM
CC(C)CN(c1ccc([C@H](C)CC(=O)O)cc1Nc1nnc(C2CC2)s1)C1CCOCC1 [Example 23, (R)-3-(3-((5-cyclopropyl-1,3,4-thiadiazol-2-yl)amino)-4-(isobutyl (tetrahydro-2H-pyran-4-yl)amino)phenyl)butanoic Acid] | 3.16 nM
